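Growth conditions: 96-well plates. Treatment: test compound, 48 hours, 5 concentrations. Analysis: linear interpolation between bracketing concentrations; unreached endpoints set to highest concentration. Definition used: TGI = concentration required for complete inhibition of growth.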
Legend:
Experiment in all cases: growth of human tumour cells (NCI), 48 h
[1] = system: 786-0 renal
[2] = system: A498 renal
[3] = system: A549 NSCLC
[4] = system: ACHN renal
[5] = system: BT-549 breast
[6] = system: CAKI-1 renal
[7] = system: CCRF-CEM leukemia
[8] = system: COLO 205 colon
[9] = system: DU-145 prostate
[10] = system: EKVX NSCLC
[11] = system: HCC-2998 colon
[12] = system: HCT-116 colon
[13] = system: HCT-15 colon
[14] = system: HL-60(TB) leukemia
[15] = system: HOP-62 NSCLC
[16] = system: HOP-92 NSCLC
[17] = system: HS 578T breast
[18] = system: HT29 colon
[19] = system: IGROV1 ovarian
[20] = system: K-562 leukemia
[21] = system: KM12 colon
[22] = system: LOX IMVI melanoma
[23] = system: MALME-3M melanoma
[24] = system: MCF7 breast
[25] = system: MDA-MB-231 breast
[26] = system: MDA-MB-435
[27] = system: MDA-N
[28] = system: MOLT-4 leukemia
[29] = system: NCI-H226 lung
[30] = system: NCI-H23 lung
[31] = system: NCI-H460 lung
[32] = system: NCI-H522 lung
[33] = system: NCI/ADR-RES ovarian
[34] = system: OVCAR-3 ovarian
[35] = system: OVCAR-4 ovarian
[36] = system: OVCAR-5 ovarian
[37] = system: OVCAR-8 ovarian
[38] = system: PC-3 prostate
[39] = system: RPMI-8226 leukemia
[40] = system: RXF 393 renal
[41] = system: SF-268 CNS
[42] = system: SF-295 CNS
[43] = system: SF-539 CNS
[44] = system: SK-MEL-2 melanoma
[45] = system: SK-MEL-28 melanoma
[46] = system: SK-MEL-5 melanoma
[47] = system: SK-OV-3 ovarian
[48] = system: SN12C renal
[49] = system: SNB-75 CNS
[50] = system: SR leukemia
[51] = system: SW-620 colon
[52] = system: T-47D breast
[53] = system: TK-10 renal
[54] = system: UACC-257 melanoma
[55] = system: UACC-62 melanoma
[56] = system: UO-31 renal
[57] = system: M14 melanoma
[58] = system: SNB-19 CNS
[59] = system: U251 CNS

CN(C)CCCNC(=O)c1c(O)c2ccccc2[nH]c1=O
TGI [1]: > 100 µM | TGI [2]: > 100 µM | TGI [3]: > 100 µM | TGI [4]: > 100 µM | TGI [5]: > 100 µM | TGI [6]: > 100 µM | TGI [7]: > 100 µM | TGI [8]: > 100 µM | TGI [9]: > 100 µM | TGI [10]: > 100 µM | TGI [11]: > 100 µM | TGI [12]: > 100 µM | TGI [13]: > 100 µM | TGI [14]: > 100 µM | TGI [15]: > 100 µM | TGI [16]: > 100 µM | TGI [17]: > 100 µM | TGI [18]: > 100 µM | TGI [19]: > 100 µM | TGI [20]: > 100 µM | TGI [21]: > 100 µM | TGI [22]: > 100 µM | TGI [23]: > 100 µM | TGI [24]: > 100 µM | TGI [25]: > 100 µM | TGI [26]: > 100 µM | TGI [27]: > 100 µM | TGI [28]: > 100 µM | TGI [29]: > 100 µM | TGI [30]: > 100 µM | TGI [31]: > 100 µM | TGI [32]: > 100 µM | TGI [33]: > 100 µM | TGI [34]: > 100 µM | TGI [35]: > 100 µM | TGI [36]: > 100 µM | TGI [37]: > 100 µM | TGI [38]: > 100 µM | TGI [39]: > 100 µM | TGI [40]: > 100 µM | TGI [41]: > 100 µM | TGI [42]: > 100 µM | TGI [43]: > 100 µM | TGI [44]: > 100 µM | TGI [45]: > 100 µM | TGI [46]: > 100 µM | TGI [47]: > 100 µM | TGI [48]: > 100 µM | TGI [49]: > 100 µM | TGI [50]: > 100 µM | TGI [51]: > 100 µM | TGI [52]: > 100 µM | TGI [53]: > 100 µM | TGI [54]: > 100 µM | TGI [55]: > 100 µM | TGI [56]: 58.6 µM

Cc1ccc2nc(Cl)c(/C=N/N3C(=O)/C(=C/c4cccc([N+](=O)[O-])c4)N=C3c3ccccc3)cc2c1
TGI [1]: > 100 µM | TGI [2]: 52.3 µM | TGI [3]: > 100 µM | TGI [4]: > 100 µM | TGI [5]: > 100 µM | TGI [6]: > 100 µM | TGI [7]: 97 µM | TGI [8]: > 100 µM | TGI [9]: > 100 µM | TGI [10]: > 100 µM | TGI [11]: > 100 µM | TGI [12]: > 100 µM | TGI [13]: > 100 µM | TGI [14]: > 100 µM | TGI [15]: > 100 µM | TGI [16]: > 100 µM | TGI [17]: > 100 µM | TGI [18]: > 100 µM | TGI [19]: > 100 µM | TGI [20]: > 100 µM | TGI [21]: > 100 µM | TGI [22]: > 100 µM | TGI [57]: > 100 µM | TGI [24]: 93.7 µM | TGI [25]: > 100 µM | TGI [26]: 54.5 µM | TGI [27]: 42.2 µM | TGI [28]: 80.5 µM | TGI [31]: > 100 µM | TGI [33]: > 100 µM | TGI [34]: > 100 µM | TGI [35]: > 100 µM | TGI [36]: > 100 µM | TGI [37]: > 100 µM | TGI [38]: 76.9 µM | TGI [39]: > 100 µM | TGI [41]: > 100 µM | TGI [42]: > 100 µM | TGI [43]: > 100 µM | TGI [44]: 61.7 µM | TGI [45]: > 100 µM | TGI [46]: > 100 µM | TGI [47]: > 100 µM | TGI [48]: > 100 µM | TGI [58]: > 100 µM | TGI [49]: > 100 µM | TGI [50]: 59.6 µM | TGI [51]: > 100 µM | TGI [52]: > 100 µM | TGI [53]: > 100 µM | TGI [59]: > 100 µM | TGI [54]: > 100 µM | TGI [55]: > 100 µM | TGI [56]: > 100 µM

From PubChem BioAssay (NCI)
